Assay results taken from patent publication US20110206638A1, “COMPOSITIONS AND METHODS FOR REDUCING THE MUTATION RATE OF VIRUSES” (priority 2010, published 2011).
Entries after “also recorded” stand apart in the source; their conditions may differ.

Assays:
Con1 replicon cells = assay: 8-OHG oxidative RNA damage in SgPC2 Con1 replicon cells (ELISA); type: cell-based, human; settings: for level of 8-OHG in ethanol and BSO-treated replicon cells with inhibitor: 0.5% ethanol or 20 μM BSO daily for 48 hr, 10 μM dipyridyl, 2 mM GSH ester, 5 μM PIH, 0.1 mM DETAPAC, 1 mM L-NMA, DPI, 25 μM DADS
Experimental: Total RNA was isolated using Trizol (Invitrogen) and analyzed for 8-OH-guanosine (8-OH-G) by northwestern, as described (Shan X et al. (2003) J. Neurosci. 23:4913-4921). Briefly, RNA was size-fractionated by agarose gel electrophoresis, transferred to a nylon membrane, blocked with 1% BSA, incubated sequentially with monoclonal anti-8-OH-G/dG antibodies (QED Bioscience, Inc.) and then with goat anti-mouse HRP-conjugated secondary antibody (Santa Cruz Biotechnology), and signals were detected, using an ECL kit (Amersham). In addition, RNA was digested with nuclease P1 (Sigma, US Biological) and alkaline phosphatase (Promega) and analyzed for 8-OH-G content using RNA Damage Kit (Cell Biolabs, Inc.), following manufacturer's protocols.
Total RNA was isolated using Trizol (Invitrogen) and analyzed for 8-OHG by ELISA. Briefly, RNA was incubated with 10 U DNase I (GE Healthcare), 10 U nuclease P1 (Sigma or US Biological), and 10 U alkaline phosphatase (Promega) and analyzed for 8-OHG content with RNA Damage Kit (Cell Biolabs, Inc.) and 8-OHG standards, following manufacturer's protocols.

[1] = tested on: subgenomic HCV replicon of genotype 1b (Con1S1179I), NS5A region; assay: NS5A sequencing of HCV RNA, nucleotide and amino acid substitution rates in Con1 replicon cells (Example 2); type: cell-based, Hepatitis C virus; settings: for amino acid substitution rate in the BSO group with co-treatment: 20 μM BSO daily for 48 hr; for amino acid substitution rate in the BSO group with co-treatment / amino acid substitution rate in the ethanol group with co-treatment / nt. substitution rates of ethanol and BSO groups with co-treatment / dn/ds ratio in the BSO group with co-treatment: 10 μM dipyridyl or 2 mM GSH ester; for amino acid substitution rate in the ethanol group with co-treatment: 0.5% ethanol daily for 48 hr; for nt. substitution rates of ethanol and BSO groups with co-treatment: 0.5% ethanol or 20 μM BSO daily for 48 hr; for percentage of sites undergoing positive selection with co-treatment: FIG. 8A; for dn/ds ratio of the control group with co-treatment: from 0.31 without inhibitor; for dn/ds ratio in the BSO group with co-treatment: from 0.72 without inhibitor, 48 hr; for Nt. change per site: Con1 replicon cells, once daily for 48 hrs, T7 baseline subtracted, ethanol 0.5% v/v, BSO 20 μM, H2O2 100 μM, acetaldehyde 10 μM; for Fold increase (Amino acid change per site): over control, 48 hrs
Experimental: Huh7 cell clones (SgPC2 cells) supporting continuous replication of a subgenomic HCV replicon of genotype 1b (Con1S1179I sequence) were used (Choi J. et al. (2004) Hepatology 39:81-89; Blight K J et al. (2000) Science 290:1972). Subgenomic replicons support the HCV RNA genome replication by the viral replicase but no virus is formed. The in vitro transcription, transfection of the viral RNA, and Huh7 human hepatoma cell culture were performed as described (Choi J. et al. (2004) Hepatology 39:81-89; Blight K J et al. (2000) Science 290:1972). All biochemicals including ethanol (molecular biology grade), acetaldehyde, BSO, H2O2, dipyridal, and GSH ethyl ester were obtained from SigmaAldrich except PIH, which was synthesized according to published methods (Kicic A et al., (2001) Cancer 92: 3093-3110; Ponka P. et al., (1979) FEBS Lett 97: 317-321).
Total RNAs were collected using Trizol (Invitrogen). Then, the NS5A region (nt. 4612 to 6013 of Con1 replicon) was reverse transcribed/amplified with AccuScript High Fidelity RT-PCR System (Agilent). The reverse primer used for reverse transcription and PCR amplification was 5′-[…]-3′ (SEQ ID NO: 1), and the forward primer was 5′-[…]-3′ (SEQ ID NO: 2). The XbaI and HindIII restriction enzyme sites are underlined. The cDNA products were cloned into pUC19 via HindIII and XbaI sites and sequenced at the Joint Genome Institute (Livermore, Calif.) and University of California Berkeley Sequencing (Berkeley, Calif.). Sequences were aligned against Con1(S1179I) sequence, using BioEdit/MEGA 4.0 Molecular Evolutionary Genetics Analysis software. Cumulative synonymous and nonsynonymous mutations were computed using Synonymous Nonsynonomous Analysis Program (SNAP; www.hcv.lanl.gov). The […] ratio was calculated using SNAP. Amino acid substitution trends were analyzed by position with MutationCounter, a mutation counting program, developed for this project. The sequences were compared with 1,212 genotype 1b NS5A sequences pooled from the Lawrence Livermore HCV sequence database (www.hcv.lanl.gov) which included sequences from the European, Asian, and Russian databases. Sequences harboring gaps, undetermined nucleotides, or incomplete NS5A sequences were removed prior to the analysis.
To test whether ethanol can affect the HCV RNA sequence, Con1 replicon cells that support genotype 1b subgenomic HCV RNA replication were incubated with ethanol (0.5% v/v), BSO (20 μM), H2O2 (100 μM), or acetaldehyde (10 μM) once daily for 48 hrs with a change of the cell culture medium at the time of each treatment. Acetaldehyde and H2O2 are generated during hepatic metabolism of ethanol. BSO, by inhibiting GSH biosynthesis, mimics GSH depletion seen in hepatitis C patients. GSH participates in detoxification reactions that remove reactive species such as H2O2 and acetaldehyde. Thus, by decreasing GSH, BSO also amplifies the effects of endogenous ROS and RNS, allowing one to test the effects of endogenous ROS/RNS. Then, the RNA was collected, and the NS5A region corresponding to nt. 4612 to 6013 of Con1 replicon was reverse transcribed using AccuScript reverse transcriptase and amplified with PfuUltra (Agilent). PfuUltra is a high fidelity DNA polymerase with an error rate of 4.3×10^−9; AccuScript reverse transcriptase has an error rate of 1.61×10^−7. Then, the cDNA products were cloned into pUC19 and sequenced by the Sanger method.

[2] = tested on: subgenomic HCV replicon of genotype 1b (Con1), NS5A region; assay: NS5A sequencing of HCV RNA, mutation frequency in SgPC2 Con1 replicon cells (Example 1); type: cell-based, Hepatitis C virus; settings: H2O2 100 μM, acetaldehyde 10 μM, once daily for 48 hrs
Experimental: Huh7 cell clones (SgPC2 cells) supporting continuous replication of a subgenomic HCV replicon of genotype 1b (Con1 sequence) were used (Choi J. et al. (2004) Hepatology 39:81-89; Blight K J et al. (2000) Science 290:1972). The subgenomic replicons support HCV RNA replication but no virus is formed. The in vitro transcription, transfection of HCV RNA, and Huh7 human hepatoma cell culture were performed by methods known in the art and as previously described (Choi J. et al. (2004) Hepatology 39:81-89; Blight K J et al. (2000) Science 290:1972).
After various treatments, total RNAs were collected using Trizol (Invitrogen). Then, the NS5A region (nt. 4612 to 6013 of Con1 replicon) was reverse transcribed/amplified with AccuScript High Fidelity RT-PCR System (Stratagene). The cDNAs were cloned into pUC19 and sequenced at the Joint Genome Institute (Livermore, Calif.). Sequences were aligned against Con1(S11791) sequence, using BioEdit/MEGA 4.0 Molecular Evolutionary Genetics Analysis software.
To test whether ethanol can increase the mutation rate of HCV, SgPC2 Con1 replicon cells that support genotype 1b subgenomic HCV RNA replication (FIG. 2B) were incubated with ethanol (0.5%), BSO (amplifies the effects of endogenous ROS/RNS by decreasing the level of glutathione in the cell), H2O2 (100 μM), or acetaldehyde (10 μM) once daily for 48 hrs. Then, the RNAs were collected, and the NS5A region (nt. 4612 to 6013 of Con1 replicon) was reverse transcribed/amplified with AccuScript High Fidelity RT-PCR System (Stratagene). Then, the cDNAs were cloned into pUC19 and sequenced at the Joint Genome Institute (Livermore, Calif.). T7 HCV RNA transcript, initially used to transfect the Con1 cells, was also sequenced to assess the basal level of RNA heterogeneity, such as due to any heterogeneity of the DNA template prior to in vitro transcription as well as any errors generated during transcription and RT-PCR cloning. The experiments were focused on NS5A because of its moderate level of diversity and its role in viral replication as well as interferon resistance. Sequences were aligned against Con1(S1179I) sequence, using BioEdit/MEGA 4.0 Molecular Evolutionary Genetics Analysis software.

SMILES: C=CCSSCC=C [DADS, diallyl disulfide]
- level of 8-OHG in ethanol and BSO-treated replicon cells with inhibitor (Con1 replicon cells): reduce; also recorded: decreased

SMILES: O=C(O)CN(CCN(CC(=O)O)CC(=O)O)CCN(CC(=O)O)CC(=O)O [DETAPAC, 1,1,4,7,7-diethylenetriaminepentaacetic acid]
- level of 8-OHG in ethanol and BSO-treated replicon cells with inhibitor (Con1 replicon cells): decreased
- decrease of 8-OHG levels in BSO-treated SgPC2 cells (Con1 replicon cells; DETAPAC 0.1 mM): 19.7±0.2%
- decrease of 8-OHG levels in control SgPC2 cells (Con1 replicon cells; DETAPAC 0.1 mM): 28.0±0.3%
- decrease of 8-OHG levels in ethanol-treated SgPC2 cells (Con1 replicon cells; DETAPAC 0.1 mM): 13.8±0.3%

SMILES: c1ccc2c(c1)[I+]c1ccccc1-2 [DPI, diphenylene iodonium]
- level of 8-OHG in ethanol and BSO-treated replicon cells with inhibitor (Con1 replicon cells): reduce; also recorded: decreased

SMILES: c1ccc(-c2ccccn2)nc1 [Dipyridyl, α,α′-Dipyridyl]
- level of 8-OHG in ethanol and BSO-treated replicon cells with inhibitor (Con1 replicon cells): significantly decreased
- dn/ds ratio in the ethanol group with co-treatment [1]: 0.46
- amino acid substitution rate in the BSO group with co-treatment [1]: effectively abolished
- amino acid substitution rate in the ethanol group with co-treatment [1]: significantly attenuated
- nt. substitution rates of ethanol and BSO groups with co-treatment [1]: no longer any significant increase over the control
- percentage of sites undergoing positive selection with co-treatment [1]: decreased
- dn/ds ratio of the control group with co-treatment [1]: did not affect
- dn/ds ratio in the BSO group with co-treatment [1]: 0.46

SMILES: CCOC(=O)CNC(=O)[C@H](CS)NC(=O)CC[C@H](N)C(=O)O [GSH ester, glutathione ethyl ester]
- level of 8-OHG in ethanol and BSO-treated replicon cells with inhibitor (Con1 replicon cells): reduce; also recorded: effectively decreased
- dn/ds ratio in the ethanol group with co-treatment [1]: 0.43
- amino acid substitution rate in the BSO group with co-treatment [1]: not significantly above the control
- amino acid substitution rate in the ethanol group with co-treatment [1]: not significantly above the control
- nt. substitution rates of ethanol and BSO groups with co-treatment [1]: not significantly above the control
- percentage of sites undergoing positive selection with co-treatment [1]: decreased
- dn/ds ratio of the control group with co-treatment [1]: 0.24
- dn/ds ratio in the BSO group with co-treatment [1]: 0.21

SMILES: OO [H2O2, hydrogen peroxide]
- Nt. change per site [1]: 5.28×10^−4 nt. change per site
- Fold increase (Amino acid change per site) [1]: about 10 fold
- increase in mutation frequency vs control [2]: not statistically significant

SMILES: CC(=O)O.CNC(=N)NCCC[C@H](N)C(=O)O [L-NMA, N^G-methyl-L-arginine acetate]
- level of 8-OHG in ethanol and BSO-treated replicon cells with inhibitor (Con1 replicon cells): reduce; also recorded: decreased

SMILES: [Cl][Ni][Cl] [NiCl2]
- fold increase in 8-OHG content over the control (Con1 replicon cells; 48 hrs, 0.5% (v/v) ethanol, 20 μM BSO, 250 μM NiCl2 daily): 55.4±3.1 fold

SMILES: Cc1ncc(CO)c(C=NNC(=O)c2ccncc2)c1O [PIH, pyridoxal isonicotinoyl hydrazone]
- level of 8-OHG in ethanol and BSO-treated replicon cells with inhibitor (Con1 replicon cells): decreased
- level of 8-OHG in ethanol and BSO-treated replicon cells with inhibitor (Con1 replicon cells; listed as pyridoxal isonicotinoyl hydrazone): significantly decreased

SMILES: CC=O [acetaldehyde]
- 8-OH-G in Con1 replicon (SgPC2) cells, daily treatment for 2 weeks (Con1 replicon cells; 0.1% ethanol, 5 μM acetaldehyde, 20 μM BSO): significant increases
- Nt. change per site [1]: 4.25×10^−4 nt. change per site
- Fold increase (Amino acid change per site) [1]: did not increase
- increase in mutation frequency vs control [2]: not statistically significant
